Measured values as given in US20190054093A1, “TREATMENT OF SARCOPENIA WITH ECDYSTEROIDS” (priority 2014, published 2019).
Read-outs that look alike come from different tables or passages of the source.

Assays:
[1] = tested on: Caspase-3 (Casp3) gene expression in C2C12 muscle cells; test: Caspase-3 gene expression in C2C12 myotubes (RT2 Profiler PCR Array, Example 1); type: cell-based, mouse; settings: 20 ppm ATE or 1 μM methandrostenolone, 6 h
Description: (§1) The effect of Ajuga turkestanica extract (ATE) standardized to Turkesterone content was studied in muscle cells. […] Cells between passages 3 and 10 were seeded at a density of 10,000 cells per cm^2. Cells were grown for 48 h until they reached 80-90% confluence. […] Cells were maintained at 37° C. in a humidified 5% CO2 incubator and medium was changed every other day.
(§2) For RNA extraction, C2C12 cells were plated and differentiated to myotubes into 12-wells plates. […] RNA was then extracted using an All Prep RNA/Protein Kit (Qiagen, Spain). Total RNA was quantified using a fluorometric method with Quant-iT kit (Invitrogen, Spain). RNA was stored at −80° C. until further use. cDNA was reverse-transcribed from the RNA extract using RT^2 First Stand cDNA kit and we used a RT^2 Profiler PCR Array to analyze a panel of 84 genes involved in skeletal muscle development and disease (Qiagen, Spain). Quantitative real-time RT-PCR was carried out using a SYBR-Green/ROX detection in a MX3005P Q-PCR System. Samples were heated at 95° C. for 10 min, followed by a second stage composed of 15 sec at 95° C., 1 min at 60° C. which was repeated 40 times and third stage for dissociation curve composed of 1 min at 95° C., 30 sec at 55° C. and 30 sec at 95° C. The PCR-array data was analyzed by calculating relative gene expression and statistical significance through the use of known methods.

[2] = tested on: myostatin (Mstn) gene expression in C2C12 muscle cells; test: Myostatin gene expression in C2C12 myotubes (RT2 Profiler PCR Array, Example 1); type: cell-based, mouse; settings: 20 ppm ATE or 1 μM methandrostenolone, 6 h
Description: as §1, §2

C2C12 myotubes = test: Protein synthesis by radio-labeled leucine incorporation in C2C12 myotubes (Example 3); type: cell-based, mouse
MCF7-AR1 cells = test: A-Screen bioassay: androgen-dependent inhibition of E2-induced proliferation; type: cell-based; settings: Homo sapiens; in the presence of E2; read-out: IC50 of inhibition of cell proliferation
Description: In this example ATE and RCE were assessed for androgenic activity using the A-screeen assay. MCF7-AR1 is a human cancer-derived cell line which has been genetically engineered to overexpress the androgenic receptor (AR). […] This assay measures androgen-dependent inhibition of proliferation of the androgen receptor (AR)-positive human mammary carcinoma cell line, MCF7-AR1. This cell line has been stably transfected with a full human AR and expresses approximately five times more AR than wild-type cells. MCF7-AR1 cells retain the capacity to proliferate in response to estrogen treatment (E2). Androgens inhibit estrogen-induced proliferation and cells arrest in G0/G1 phase in a dose-dependent manner.
The A-Screen bioassay compares the cell number of similar inocula of MCF-7-AR1 cells growing in media in the absence of any estrogen and androgens (C−, negative control), in the presence of E2 (C+, estrogen control) and in the presence of E2 in combination with different concentrations of the suspected androgen (FIG. 11). Androgenic activity of a test compound results in the inhibition of cell proliferation compared to the E2 control.

[3] = tested on: Caspase-3 expression in C2C12 myotubes; test: Caspase 3 expression in C2C12 myotubes (quantitative RT-PCR, Example 4); type: cell-based, mouse; settings: 24 hours; extracts and turkesterone 0.002, 0.02 and 2 ppm, 20HE 0.001, 0.01 and 1 ppm
Description: Experiments similar to those in example 1 have been carried out with two other plant-derived, ecdysteroid-rich extracts. […] Cells between passages 3 and 10 were seeded at a density of 10,000 cells per cm^2. Cells were grown for 48 h until they reached 80-90% confluence. […] Cells were maintained at 37° C. in a humidified 5% CO2 incubator and medium was changed every other day.
For RNA and protein extraction C2C12 myotubes were incubated with 0.002, 0.02 and 2 ppm of Rhaponticum carthamoides extract (RCE) and Cyanotis arachnoidea extract (CAE) or 0.001, 0.01 and 1 ppm of 20-hydroxyecdysone or 0.002, 0.02 and 2 ppm of Turkesterone for 24 hours. These two latter served as positive controls. RNA and protein were extracted using All Prep RNA/Protein Kit (Qiagen, Spain). RNA was stored at −80° C. and protein at −20° C. until further use. Total RNA was quantified using a fluorometric method with Quant-iT kit (Invitrogen, Spain). The cDNA was reverse-transcribed from the RNA extract using RT^2First Stand cDNA kit (Qiagen, Spain). Quantitative real-time RT-PCR for Caspase-3 and Myostatin were carried out using a MX3005P Q-PCR System (Agilent Technologies) and SYBR-Green/ROX detection. The housekeeping gene used was Actb and Mouse XpressRef Universal total RNA (Qiagen, Spain) as a positive control. […] The fold change in gene expression was calculated with ΔΔCt Method.

[4] = cited from earlier work
[5] = tested on: protein synthesis in mouse liver; settings: actinomycin D 2 mg/kg 30 minutes before the test substance; cited from earlier work
[6] = tested on: polyribosomes from the livers of mice; settings: cited from earlier work
[7] = cited from earlier work; for effect on the sexual apparatus (ventral prostate weight, seminal vesicle weight): sexually immature intact rats
[8] = castrated sexually immature rats
[9] = sexually immature intact rats, 0.5 mg per 100 g intragastrically daily for 10 days
[10] = sexually mature male rats, 0.5 mg per 100 g intragastrically daily for 10 days

Compound | IC50 (MCF7-AR1 cells) | ratio of test to control (weight gain) [4, 8] | weight gain [4, 9] | ratio of test to control (weight gain) ([4]; sexually immature intact rats) | total protein content of organs ([4]; sexually immature intact rats) | effect of actinomycin D on the stimulation of liver protein synthesis [5] | weight of the ventral prostate and seminal vesicles [7, 8] | effect on the sexual apparatus (ventral prostate weight, seminal vesicle weight) [7] | weight of the ventral prostate and seminal vesicles [7, 10] | also measured
C[C@]12C=CC(=O)C=C1CC[C@@H]1[C@@H]2CC[C@@]2(C)[C@H]1CC[C@]2(C)O [methandrostenolone] | 0.35 nM |  |  |  |  |  |  |  |  | down-regulation of caspase-3 [1]: < 2 fold; down-regulation of Myostatin [2]: < 2 fold; effect on protein synthesis (C2C12 myotubes; concentrations up to 10 μM): no significant effect
C[C@]1(O)CC[C@H]2[C@@H]3CCC4=CC(=O)CCC4=C3C=C[C@@]21C [Example R1881, methyltrienolone] | 0.02 nM |  |  |  |  |  |  |  |  | 
CC(C)(O)CC[C@@H](O)[C@](C)(O)[C@H]1CC[C@@]2(O)C3=CC(=O)[C@@H]4C[C@@H](O)[C@@H](O)C[C@]4(C)[C@H]3[C@H](O)C[C@]12C [turkesterone] |  | 1.8 | 38 mg per 1 g initial weight per day | 2.6 | statistically significant increase | no noticeable effect | did not change | pronounced effect | did not change significantly | protein synthesis, % of control (C2C12 myotubes; 40 nM): 110 % of control; protein synthesis, % of control (peak effect) (C2C12 myotubes; 0.1 μM): 120 % of control; regulation of Caspase 3 expression [3]: significant effect in down regulation; body weight gain [4, 10]: 9.7 mg per 1 g weight per day; body weight gain relative to control [4, 10]: 2 times; ratio of translating to nontranslating ribosomes ([6]; mouse liver, control group 3.98): 3.80
turkesterone tetraacetate |  | 1.9 | 37.2 mg per 1 g initial weight per day | 2.5 | statistically significant increase |  | did not change | pronounced effect | did not change significantly | heart weight and weight of the anterior tibial muscle [4, 10]: statistically significant increase
C[C@]12C=CC(=O)C=C1CC[C@@H]1[C@@H]2CC[C@@]2(C)[C@H]1CC[C@]2(C)O [Nerobol] |  |  |  |  |  | almost totally removed the effect |  |  |  | increase of protein synthesis in the system of polyribosomes and cellular fluid from livers of treated animals ([6]; mice, Nerobol 1.0 mg/100 g, P<0.001): 14%
